Test system: 454973-116-R2-J3-PDC spheroids, percent test/control viability
Assay: Anticancer human tumor 454973-116-R2-J3-PDC patient-derived pancreatic carcinoma cell line growth inhibition [CLK]
Settings: spheroids with HUVEC and MSC; for IC50: curve of first compound; for viability, T/C: stronger effect = lower value; active = viability on the fitted dose curve at most 10% of control; inactive = the rest
Outline: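 Patient-derived tumor cells grown as complex spheroids with HUVEC endothelial cells and mesenchymal stem cells, treated with drug combinations. Concentrations descend in half-log steps from near clinical Cmax, or from 10 microM if Cmax unknown.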

[1] = second compound 0.0316 µM, first compound 0.0316 µM
[2] = second compound 0.0316 µM, first compound 0.1 µM
[3] = second compound 0.0316 µM, first compound 0.316 µM
[4] = second compound 0.0316 µM, first compound 1 µM
[5] = second compound 0.0316 µM, first compound 3.16 µM
[6] = second compound 0.0316 µM, first compound 10 µM
[7] = second compound 0.1 µM, first compound 0.0316 µM
[8] = second compound 0.1 µM, first compound 0.1 µM
[9] = second compound 0.1 µM, first compound 0.316 µM
[10] = second compound 0.1 µM, first compound 1 µM
[11] = second compound 0.1 µM, first compound 3.16 µM
[12] = second compound 0.1 µM, first compound 10 µM
[13] = second compound 0.316 µM, first compound 0.0316 µM
[14] = second compound 0.316 µM, first compound 0.1 µM
[15] = second compound 0.316 µM, first compound 0.316 µM
[16] = second compound 0.316 µM, first compound 1 µM
[17] = second compound 0.316 µM, first compound 3.16 µM
[18] = second compound 0.316 µM, first compound 10 µM
[19] = second compound 1 µM, first compound 0.0316 µM
[20] = second compound 1 µM, first compound 0.1 µM
[21] = second compound 1 µM, first compound 0.316 µM
[22] = second compound 1 µM, first compound 1 µM
[23] = second compound 1 µM, first compound 3.16 µM
[24] = second compound 1 µM, first compound 10 µM
[25] = second compound 3.16 µM, first compound 0.0316 µM
[26] = second compound 3.16 µM, first compound 0.1 µM
[27] = second compound 3.16 µM, first compound 0.316 µM
[28] = second compound 3.16 µM, first compound 1 µM
[29] = second compound 3.16 µM, first compound 3.16 µM
[30] = second compound 3.16 µM, first compound 10 µM
[31] = second compound 10 µM, first compound 0.0316 µM
[32] = second compound 10 µM, first compound 0.1 µM
[33] = second compound 10 µM, first compound 0.316 µM
[34] = second compound 10 µM, first compound 1 µM
[35] = second compound 10 µM, first compound 3.16 µM
[36] = second compound 10 µM, first compound 10 µM
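Note: spheroids exposed to compounds for 7 days before readout.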

COc1cccc2c1C(=O)c1c(O)c3c(c(O)c1C2=O)CC(O)(C(=O)CO)CC3OC1CC(N)C(O)C(C)O1 (stereo unspecified) + CN1CCN(c2cc(C(=O)Nc3cc4cc(-c5cnn(C)c5)ccc4cn3)ccn2)CC1
inactive: viability, T/C [1] 40.8% | viability, T/C [2] 27.2% | viability, T/C [3] 21% | viability, T/C [7] 29.2% | viability, T/C [8] 26.5% | viability, T/C [9] 17.9%
< 31.6 nM: IC50 (second compound 0.0316 µM) | IC50 (second compound 0.1 µM) | IC50 (second compound 0.316 µM) | IC50 (second compound 1 µM) | IC50 (second compound 3.16 µM) | IC50 (second compound 10 µM)
active: viability, T/C [4] 8.81% | viability, T/C [5] 0.25% | viability, T/C [6] 0.19% | viability, T/C [10] 3.51% | viability, T/C [11] 0.16% | viability, T/C [12] 0.16% | viability, T/C [13] 1.16% | viability, T/C [14] 1.16% | viability, T/C [15] 1.46% | viability, T/C [16] 0.14% | viability, T/C [17] 0.33% | viability, T/C [18] 0.12% | viability, T/C [19] 0.11% | viability, T/C [20] 0.15% | viability, T/C [21] 1.47% | viability, T/C [22] 0.11% | viability, T/C [23] 0.12% | viability, T/C [24] 0.18% | viability, T/C [25] 0.08% | viability, T/C [26] 0.45% | viability, T/C [27] 0.15% | viability, T/C [28] 0.15% | viability, T/C [29] 0.17% | viability, T/C [30] 0.1% | viability, T/C [31] 0.12% | viability, T/C [32] 0.43% | viability, T/C [33] 0.13% | viability, T/C [34] 0.12% | viability, T/C [35] 0.14% | viability, T/C [36] 0.11%

CCCS(=O)(=O)Nc1ccc(F)c(C(=O)c2c[nH]c3ncc(-c4ccc(Cl)cc4)cc23)c1F + CNC(=O)c1ccc(Nc2nc(OC3CCCC3)c3c(-c4ccc5nc(C)oc5c4)c[nH]c3n2)c(OC)c1
31.6 nM: IC50 (second compound 0.316 µM)
7250 nM: IC50 (second compound 0.1 µM)
< 31.6 nM: IC50 (second compound 1 µM) | IC50 (second compound 3.16 µM) | IC50 (second compound 10 µM)
6960 nM: IC50 (second compound 0.0316 µM)
inactive: viability, T/C [1] 96% | viability, T/C [2] 107% | viability, T/C [3] 102% | viability, T/C [4] 126% | viability, T/C [5] 107% | viability, T/C [6] 23.8% | viability, T/C [7] 97.5% | viability, T/C [8] 106% | viability, T/C [9] 111% | viability, T/C [10] 111% | viability, T/C [11] 109% | viability, T/C [12] 27.9% | viability, T/C [13] 48.2% | viability, T/C [14] 45.2% | viability, T/C [15] 45.5% | viability, T/C [16] 51.2% | viability, T/C [17] 53% | viability, T/C [18] 14.4% | viability, T/C [19] 32.2% | viability, T/C [20] 33.6% | viability, T/C [21] 33% | viability, T/C [22] 37% | viability, T/C [23] 32% | viability, T/C [24] 12.9% | viability, T/C [25] 27.9% | viability, T/C [26] 27.3% | viability, T/C [27] 31.6% | viability, T/C [28] 36.7% | viability, T/C [29] 29.7% | viability, T/C [30] 10.4% | viability, T/C [31] 26.2% | viability, T/C [32] 23.9% | viability, T/C [33] 25.9% | viability, T/C [34] 29.4% | viability, T/C [35] 31.9% | viability, T/C [36] 9.04%

COC1C=CCC(C)C(C)S(=O)(=O)NC(=O)c2ccc3c(c2)N(CC2CCC21)CC1(CCCc2cc(Cl)ccc21)CO3 (stereo unspecified) + CNC(=O)c1ccc(Nc2nc(OC3CCCC3)c3c(-c4ccc5nc(C)oc5c4)c[nH]c3n2)c(OC)c1
active: viability, T/C [6] 6.26% | viability, T/C [12] 8.61% | viability, T/C [35] 8.86% | viability, T/C [36] 9.25%
< 31.6 nM: IC50 (second compound 0.316 µM) | IC50 (second compound 1 µM) | IC50 (second compound 3.16 µM) | IC50 (second compound 10 µM)
5340 nM: IC50 (second compound 0.0316 µM)
4570 nM: IC50 (second compound 0.1 µM)
inactive: viability, T/C [1] 99.4% | viability, T/C [2] 104% | viability, T/C [3] 93.9% | viability, T/C [4] 95% | viability, T/C [5] 86.8% | viability, T/C [7] 91.8% | viability, T/C [8] 98.8% | viability, T/C [9] 92.4% | viability, T/C [10] 84.3% | viability, T/C [11] 70.9% | viability, T/C [13] 48.2% | viability, T/C [14] 53.7% | viability, T/C [15] 42% | viability, T/C [16] 46.1% | viability, T/C [17] 46.3% | viability, T/C [18] 11.5% | viability, T/C [19] 30.2% | viability, T/C [20] 23.3% | viability, T/C [21] 14.2% | viability, T/C [22] 14.4% | viability, T/C [23] 17.6% | viability, T/C [24] 14.9% | viability, T/C [25] 24.1% | viability, T/C [26] 17.4% | viability, T/C [27] 11.2% | viability, T/C [28] 11.9% | viability, T/C [29] 13.9% | viability, T/C [30] 11.8% | viability, T/C [31] 23.7% | viability, T/C [32] 21.5% | viability, T/C [33] 12.1% | viability, T/C [34] 9.9%
